Experimental data as given in patent US20100041089A1, “IMPROVED METHOD FOR DETECTING CHEMICAL […]” (priority 2006, published 2010).

Tested on: yeast genes (expressed mRNA)
Assay: DNA chip measurement of expressed mRNA of yeast genes after culture with a toxic chemical substance
Assay type: cell-based, Saccharomyces cerevisiae S288C
Conditions: for The level of expressed mRNA in the presence of chemical substance/The level of expressed mRNA in the absence of chemical substance: cultured two hours with substance; for level of expressed mRNA in the presence of chemical substance / level in the absence of chemical substance: cultured two hours with the chemical substance
Outline: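 Two-hour exposure of growing S. cerevisiae S288C (YPD, 25° C) to a sublethal toxicant preceded RNA isolation. Fluorescent cDNA was hybridized to a whole-genome array; a treated-to-untreated signal ratio of two or more was taken as significant.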

Manganese ethylenebis(dithiocarbamate) [(8)]
The level of expressed mRNA in the presence of chemical substance/The level of expressed mRNA in the absence of chemical substance (yeast gene YNL044W): 1.8
level of expressed mRNA in the presence of chemical substance / level in the absence of chemical substance (yeast gene YNL063W): 1.5
The level of expressed mRNA in the presence of chemical substance/The level of expressed mRNA in the absence of chemical substance (yeast gene YNL074C): 0.6
The level of expressed mRNA in the presence of chemical substance/The level of expressed mRNA in the absence of chemical substance (yeast gene YNL092W): 0.9
The level of expressed mRNA in the presence of chemical substance/The level of expressed mRNA in the absence of chemical substance (yeast gene YNL115C): 0.8
The level of expressed mRNA in the presence of chemical substance/The level of expressed mRNA in the absence of chemical substance (yeast gene YNL156C): 1.2
level of expressed mRNA in the presence of chemical substance / level in the absence of chemical substance (yeast gene YNL176C): 0.9
level of expressed mRNA in the presence of chemical substance / level in the absence of chemical substance (yeast gene YNL194C): 0.9
level of expressed mRNA in the presence of chemical substance / level in the absence of chemical substance (yeast gene YNL200C): 0.7
The level of expressed mRNA in the presence of chemical substance/The level of expressed mRNA in the absence of chemical substance (yeast gene YNL234W): 1.3
level of expressed mRNA in the presence of chemical substance / level in the absence of chemical substance (yeast gene YNL253W): 1.1
level of expressed mRNA in the presence of chemical substance / level in the absence of chemical substance (yeast gene YNL276C): 0.7
The level of expressed mRNA in the presence of chemical substance/The level of expressed mRNA in the absence of chemical substance (yeast gene YNL281W): 1.2
The level of expressed mRNA in the presence of chemical substance/The level of expressed mRNA in the absence of chemical substance (yeast gene YNL305C): 0.7
level of expressed mRNA in the presence of chemical substance / level in the absence of chemical substance (yeast gene YNR051C): 0.7
The level of expressed mRNA in the presence of chemical substance/The level of expressed mRNA in the absence of chemical substance (yeast gene YNR068C): 1.1
level of expressed mRNA in the presence of chemical substance / level in the absence of chemical substance (yeast gene YOL026C): 1.1
The level of expressed mRNA in the presence of chemical substance/The level of expressed mRNA in the absence of chemical substance (yeast gene YOL032W): 1.5
The level of expressed mRNA in the presence of chemical substance/The level of expressed mRNA in the absence of chemical substance (yeast gene YOL036W): 0.8
The level of expressed mRNA in the presence of chemical substance/The level of expressed mRNA in the absence of chemical substance (yeast gene YOL047C): 1.1
The level of expressed mRNA in the presence of chemical substance/The level of expressed mRNA in the absence of chemical substance (yeast gene YOL071W): 1.6
The level of expressed mRNA in the presence of chemical substance/The level of expressed mRNA in the absence of chemical substance (yeast gene YOL082W): 1.1
The level of expressed mRNA in the presence of chemical substance/The level of expressed mRNA in the absence of chemical substance (yeast gene YOL083W): 1.3
The level of expressed mRNA in the presence of chemical substance/The level of expressed mRNA in the absence of chemical substance (yeast gene YOL117W): 1.1
The level of expressed mRNA in the presence of chemical substance/The level of expressed mRNA in the absence of chemical substance (yeast gene YOL131W): 1.1
The level of expressed mRNA in the presence of chemical substance/The level of expressed mRNA in the absence of chemical substance (yeast gene YOL150C): 3.7
The level of expressed mRNA in the presence of chemical substance/The level of expressed mRNA in the absence of chemical substance (yeast gene YOL162W): 1.6
The level of expressed mRNA in the presence of chemical substance/The level of expressed mRNA in the absence of chemical substance (yeast gene YOR019W): 1.1
level of expressed mRNA in the presence of chemical substance / level in the absence of chemical substance (yeast gene YOR022C): 1.2
level of expressed mRNA in the presence of chemical substance / level in the absence of chemical substance (yeast gene YOR087W): 0.8
level of expressed mRNA in the presence of chemical substance / level in the absence of chemical substance (yeast gene YOR138C): 0.8
The level of expressed mRNA in the presence of chemical substance/The level of expressed mRNA in the absence of chemical substance (yeast gene YOR197W): 0.9
level of expressed mRNA in the presence of chemical substance / level in the absence of chemical substance (yeast gene YOR253W): 1.2
level of expressed mRNA in the presence of chemical substance / level in the absence of chemical substance (yeast gene YOR267C): 0.7
level of expressed mRNA in the presence of chemical substance / level in the absence of chemical substance (yeast gene YOR325W): 0.9
level of expressed mRNA in the presence of chemical substance / level in the absence of chemical substance (yeast gene YPL005W): 1.0
The level of expressed mRNA in the presence of chemical substance/The level of expressed mRNA in the absence of chemical substance (yeast gene YPL087W): 1.0
level of expressed mRNA in the presence of chemical substance / level in the absence of chemical substance (yeast gene YPL150W): 1.1
level of expressed mRNA in the presence of chemical substance / level in the absence of chemical substance (yeast gene YPL152W): 1.1
level of expressed mRNA in the presence of chemical substance / level in the absence of chemical substance (yeast gene YPL168W): 1.2
level of expressed mRNA in the presence of chemical substance / level in the absence of chemical substance (yeast gene YPL180W): 1.0
level of expressed mRNA in the presence of chemical substance / level in the absence of chemical substance (yeast gene YPL188W): 1.6
The level of expressed mRNA in the presence of chemical substance/The level of expressed mRNA in the absence of chemical substance (yeast gene YPL196W): 1.2
The level of expressed mRNA in the presence of chemical substance/The level of expressed mRNA in the absence of chemical substance (yeast gene YPL206C): 1.0
level of expressed mRNA in the presence of chemical substance / level in the absence of chemical substance (yeast gene YPL221W): 0.9
The level of expressed mRNA in the presence of chemical substance/The level of expressed mRNA in the absence of chemical substance (yeast gene YPL222W): 0.7
level of expressed mRNA in the presence of chemical substance / level in the absence of chemical substance (yeast gene YPL225W): 1.7
The level of expressed mRNA in the presence of chemical substance/The level of expressed mRNA in the absence of chemical substance (yeast gene YPR023C): 0.9
level of expressed mRNA in the presence of chemical substance / level in the absence of chemical substance (yeast gene YPR049C): 1.1
level of expressed mRNA in the presence of chemical substance / level in the absence of chemical substance (yeast gene YPR146C): 0.8
level of expressed mRNA in the presence of chemical substance / level in the absence of chemical substance (yeast gene YPR148C): 1.5
The level of expressed mRNA in the presence of chemical substance/The level of expressed mRNA in the absence of chemical substance (yeast gene YPR151C): 1.4
level of expressed mRNA in the presence of chemical substance / level in the absence of chemical substance (yeast gene YPR172W): 1.0
